Assay results: patent US20070270312A1, “Heteroaroyl-Substituted Serineamides” (priority 2004, published 2007)

Columns and labels:
[1] = system: Setaria viridis; test: greenhouse post-emergence herbicidal test, green foxtail; type: in vivo; conditions: 2 to 4 weeks; for post-emergence action against green foxtail: application rate 1.0 kg/ha a.s.; for post-emergence control of green foxtail: application rate 0.5 kg/ha a.s.
Source text: (§1) The seeds of the test plants were sown separately for each species. For the post-emergence treatment, the test plants were first grown to a height of 3 to 15 cm, depending on the plant habit, and only then treated with the active ingredients which had been suspended or emulsified in water. For this purpose, the test plants were either sown directly and grown in the same containers, or they were first grown separately as seedlings and transplanted into the test containers a few days prior to treatment. The rate of application for the post-emergence treatment was 1.0 or 0.5 kg/ha of a.s. (active substance). Depending on the species, the plants were kept at 10-25° C. or 20-35° C. The test period extended over 2 to 4 weeks. During this time, the plants were tended, and their response to the individual treatments was evaluated. Evaluation was carried out using a scale from 0 to 100.100 means no emergence of the plants, or complete destruction of at least the aerial parts, and 0 means no damage, or normal course of growth. The plants used in the greenhouse experiments belonged to the following species: [table]

[2] = system: Amaranthus retroflexus; test: greenhouse post-emergence herbicidal test, pig weed; type: in vivo; conditions: 2 to 4 weeks; for post-emergence action against pig weed: application rate 1.0 kg/ha a.s.; for post-emergence control of pig weed: application rate 0.5 kg/ha a.s.
Source text: as §1

[3] = system: Chenopodium album; test: greenhouse post-emergence herbicidal test, lambsquarters; type: in vivo; conditions: 2 to 4 weeks; for post-emergence action against lambsquarters: application rate 1.0 kg/ha a.s.; for post-emergence control of lambsquarters: application rate 0.5 kg/ha a.s.
Source text: as §1

melting point [°C] | Compound | post-emergence action against green foxtail [1] | post-emergence action against pig weed [2] | post-emergence action against lambsquarters [3] | post-emergence control of green foxtail [1] | post-emergence control of pig weed [2] | post-emergence control of lambsquarters [3]
 | CNC(=O)C(NC(=O)c1cn(C)nc1C(F)(F)F)C(O)c1cccs1 (mixture of isomers) [Compound 3.5] | very good | very good | very good |  |  | 
 | CNC(=O)C(NC(=O)c1cn(C)nc1C(F)(F)F)C(OC(=O)N(C)C)c1cccs1 (mixture of isomers) [Compound 3.6] |  |  |  | very good | very good | very good
 | CNC(=O)C(NC(=O)c1cn(C)nc1C(F)(F)F)C(O)c1ccn[nH]1 (mixture of isomers) [Compound 3.17] | very good | very good | very good |  |  | 
 | CNC(=O)C(NC(=O)c1cn(C)nc1C(F)(F)F)C(OC(C)=O)c1ccn[nH]1 (mixture of isomers) [Compound 3.19] |  |  |  | very good | very good | very good
 | CNC(=O)C(NC(=O)c1cn(C)nc1C(F)(F)F)C(O)c1nccs1 (mixture of isomers) [Compound 3.51] | very good | very good | very good |  |  | 
 | CNC(=O)C(NC(=O)c1cn(C)nc1C(F)(F)F)C(O)c1nccs1 (mixture of isomers) [Compound 3.52] | very good | very good | very good |  |  | 
 | CNC(=O)C(NC(=O)c1cn(C)nc1C(F)(F)F)C(OC(C)=O)c1nccs1 (mixture of isomers) [Compound 3.54] |  |  |  | very good | very good | very good
 | CNC(=O)C(NC(=O)c1cn(C)nc1C(F)(F)F)C(OC(=O)N(C)C)c1nccs1 (mixture of isomers) [Compound 3.57] | very good | very good | very good |  |  | 
 | CNC(=O)C(NC(=O)c1cn(C)nc1C(F)(F)F)C(OC(=O)N(C)C)c1nccs1 (mixture of isomers) [Compound 3.59] | very good | very good | very good |  |  | 
 | CNC(=O)C(NC(=O)c1cn(C)nc1C(F)(F)F)C(O)c1ccccn1 (racemic) [Compound 3.1] | very good | very good | very good |  |  | 
 | CNC(=O)C(NC(=O)c1cn(C)nc1C(F)(F)F)C(O)c1cccc(C)n1 (racemic) [Compound 3.2] |  |  |  | very good | very good | very good
206 | CNC(=O)C(NC(=O)c1cscc1C(F)(F)F)C(O)c1cnc2ccccc2c1 (racemic) [Compound 3.15, rac-erythro-N-(2-hydroxy-1-methylcarbamoyl-2-quinolin-3-ylethyl)-4-trifluoromethyl-thiophene-3-carboxamide] |  |  |  |  |  | 
 | CNC(=O)C(NC(=O)c1cn(C)nc1C(F)(F)F)C(O)c1ccn(C)n1 (racemic) [Compound 3.33] | very good | very good | very good |  |  | 
